The source of these data is ChEMBL document CHEMBL1908105, “UDP-glucuronosyltransferases and clinical drug-drug interactions” (Pharmacol Ther, 2005).

Where “and” joins values, the source holds several entries; their conditions need not be identical. Identical values can stand only once.

As usually defined, the Ki is a dissociation constant, usually derived from enzyme kinetics or from competition with a known ligand. As a reminder, the inhibition is the drop in the measured response relative to a control, in per cent. As a reminder, the Km is the substrate concentration at which the rate is half of its maximum.

The nature of data set [1]: Inhibition of ciramadol glucuronidation by human UGT enzymes from liver microsomes. Also on record: species or system Microsome.
A short description of data set [2]: Inhibition of morphine glucuronidation by human fetal-liver microsomes. Also on record: species or system Microsome. A general note: Liver microsomes are vesicles of endoplasmic reticulum, rich in cytochrome P450 enzymes.
A short description of data set [3]: Inhibition of 4-methylumbelliferone glucuronidation by human UGT enzymes from liver microsomes. Also on record: species or system Microsome.
Data set [4] is described as follows: Inhibition of AZT glucuronidation by human UGT enzymes from liver microsomes. Also on record: species or system Microsome.
The target of data set [5] is T1, UGT1A9 (Homo sapiens, UniProt O60656). Description: Inhibition of propofol (assayed at the Km) glucuronidation by human recombinant UGT1A9 (+/- 15% inhibition at 5mM VPA). Conditions: recombinant UGT1A9, probe propofol.
A further data set has as its target UGT2B15 (Homo sapiens, UniProt P54855). The experiment in a line: Inhibition of dihydrotestosterone (assayed at the Km) glucuronidation by human recombinant UGT2B15 (+/- 11% inhibition at 5mM VPA). Conditions: recombinant UGT2B15, probe dihydrotestosterone.
Data set [6] addresses T2, UDP-glucuronosyltransferase 2B7 (Homo sapiens, UniProt P16662).
T2 sequence (P16662 whole entry): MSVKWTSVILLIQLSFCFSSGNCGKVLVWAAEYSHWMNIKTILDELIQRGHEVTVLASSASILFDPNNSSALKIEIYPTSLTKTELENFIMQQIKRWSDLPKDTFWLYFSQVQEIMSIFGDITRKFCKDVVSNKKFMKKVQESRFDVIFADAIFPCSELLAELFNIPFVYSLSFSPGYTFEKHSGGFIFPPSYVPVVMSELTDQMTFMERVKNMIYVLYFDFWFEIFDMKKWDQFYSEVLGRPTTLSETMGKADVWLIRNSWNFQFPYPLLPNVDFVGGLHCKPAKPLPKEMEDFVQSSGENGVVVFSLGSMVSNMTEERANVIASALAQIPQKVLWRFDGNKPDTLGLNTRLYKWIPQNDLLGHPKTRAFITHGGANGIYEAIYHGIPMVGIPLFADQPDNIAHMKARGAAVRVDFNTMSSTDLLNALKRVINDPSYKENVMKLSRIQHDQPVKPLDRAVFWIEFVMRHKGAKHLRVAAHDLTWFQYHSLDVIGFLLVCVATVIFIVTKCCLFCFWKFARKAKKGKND
The experiment in a line: Inhibition of AZT glucuronidation by human recombinant UGT2B7.

Data set [7] deals with T1, UGT1A9. Description: (§1) Drug glucuronidation reaction catalyzed by human recombinant UGT1A9. Conditions: recombinant UGT1A9.
The target of data set [8] is T3, UDP-glucuronosyltransferase 1A9 (Homo sapiens, UniProt O60656).
T3 sequence (O60656 whole entry): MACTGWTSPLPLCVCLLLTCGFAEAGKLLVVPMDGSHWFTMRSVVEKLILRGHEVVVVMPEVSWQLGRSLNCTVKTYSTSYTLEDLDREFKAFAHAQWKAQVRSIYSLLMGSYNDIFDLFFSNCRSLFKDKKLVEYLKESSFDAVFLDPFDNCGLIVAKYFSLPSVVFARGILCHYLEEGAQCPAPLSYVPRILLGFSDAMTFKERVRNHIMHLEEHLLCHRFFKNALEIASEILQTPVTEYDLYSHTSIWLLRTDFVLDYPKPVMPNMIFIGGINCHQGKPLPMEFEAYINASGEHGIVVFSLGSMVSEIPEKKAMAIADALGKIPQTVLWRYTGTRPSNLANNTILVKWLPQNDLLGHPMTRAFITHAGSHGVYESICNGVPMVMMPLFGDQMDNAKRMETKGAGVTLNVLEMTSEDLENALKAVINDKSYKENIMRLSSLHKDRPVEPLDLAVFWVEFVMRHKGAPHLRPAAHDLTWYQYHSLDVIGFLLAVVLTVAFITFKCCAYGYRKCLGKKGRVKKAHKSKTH
Described as §1.

The target in data set [9] is UDP-glucuronosyltransferase 1A7 (Homo sapiens, UniProt Q9HAW7). The experiment in a line: Inhibition of 4-methylumbelliferone glucuronidation by human recombinant UGT1A7.
Sequence of UDP-glucuronosyltransferase 1A7 (Q9HAW7 whole entry): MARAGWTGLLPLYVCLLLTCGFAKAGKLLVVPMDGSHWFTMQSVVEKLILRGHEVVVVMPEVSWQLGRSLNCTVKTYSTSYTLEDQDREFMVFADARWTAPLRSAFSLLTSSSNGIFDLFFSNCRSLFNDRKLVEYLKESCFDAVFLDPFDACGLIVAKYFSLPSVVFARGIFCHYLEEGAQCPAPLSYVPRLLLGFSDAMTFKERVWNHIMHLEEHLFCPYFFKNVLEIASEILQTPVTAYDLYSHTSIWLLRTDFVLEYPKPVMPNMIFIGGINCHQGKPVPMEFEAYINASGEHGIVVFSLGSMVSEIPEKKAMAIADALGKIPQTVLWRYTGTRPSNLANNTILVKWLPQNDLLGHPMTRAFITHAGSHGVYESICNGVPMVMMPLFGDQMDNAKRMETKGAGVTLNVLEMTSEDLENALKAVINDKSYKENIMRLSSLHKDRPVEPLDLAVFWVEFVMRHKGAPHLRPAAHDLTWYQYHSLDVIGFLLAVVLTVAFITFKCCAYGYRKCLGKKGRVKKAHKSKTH
Data set [10] addresses T3, UDP-glucuronosyltransferase 1A9. Description: Inhibition of 4-methylumbelliferone glucuronidation by human recombinant UGT1A9.
In data set [11] the target is T4, UDP-glucuronosyltransferase 1A3 (Homo sapiens, UniProt P35503).
T4 sequence (P35503 whole entry): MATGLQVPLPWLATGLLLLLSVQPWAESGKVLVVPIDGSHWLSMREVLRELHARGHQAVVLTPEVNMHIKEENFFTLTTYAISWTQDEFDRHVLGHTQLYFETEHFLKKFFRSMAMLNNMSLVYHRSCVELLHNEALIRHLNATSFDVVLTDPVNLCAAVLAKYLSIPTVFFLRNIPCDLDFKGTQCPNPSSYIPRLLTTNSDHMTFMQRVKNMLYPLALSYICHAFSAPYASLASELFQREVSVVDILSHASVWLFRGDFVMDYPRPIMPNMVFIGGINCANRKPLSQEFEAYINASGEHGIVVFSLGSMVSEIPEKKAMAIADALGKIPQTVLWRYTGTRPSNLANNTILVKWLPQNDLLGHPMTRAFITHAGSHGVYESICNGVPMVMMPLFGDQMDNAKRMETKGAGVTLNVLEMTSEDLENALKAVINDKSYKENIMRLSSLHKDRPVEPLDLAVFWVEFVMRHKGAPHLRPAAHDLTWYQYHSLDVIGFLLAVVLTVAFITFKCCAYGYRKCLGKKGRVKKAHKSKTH
The experiment in a line: (§2) Drug glucuronidation reaction catalyzed by human recombinant UGT1A3.

For a further data set, the target named is UGT1A3 (Homo sapiens, UniProt P35503). The data set is described as §2. Conditions: recombinant UGT1A3.
Data set [12] concerns the target UDP-glucuronosyltransferase 1A10 (Homo sapiens, UniProt Q9HAW8). The experiment in a line: Inhibition of 4-methylumbelliferone glucuronidation by human recombinant UGT1A10.
The target in data set [13] is T5, UDP-glucuronosyltransferase 1A1 (Homo sapiens, UniProt P22309).
T5 sequence (P22309 whole entry): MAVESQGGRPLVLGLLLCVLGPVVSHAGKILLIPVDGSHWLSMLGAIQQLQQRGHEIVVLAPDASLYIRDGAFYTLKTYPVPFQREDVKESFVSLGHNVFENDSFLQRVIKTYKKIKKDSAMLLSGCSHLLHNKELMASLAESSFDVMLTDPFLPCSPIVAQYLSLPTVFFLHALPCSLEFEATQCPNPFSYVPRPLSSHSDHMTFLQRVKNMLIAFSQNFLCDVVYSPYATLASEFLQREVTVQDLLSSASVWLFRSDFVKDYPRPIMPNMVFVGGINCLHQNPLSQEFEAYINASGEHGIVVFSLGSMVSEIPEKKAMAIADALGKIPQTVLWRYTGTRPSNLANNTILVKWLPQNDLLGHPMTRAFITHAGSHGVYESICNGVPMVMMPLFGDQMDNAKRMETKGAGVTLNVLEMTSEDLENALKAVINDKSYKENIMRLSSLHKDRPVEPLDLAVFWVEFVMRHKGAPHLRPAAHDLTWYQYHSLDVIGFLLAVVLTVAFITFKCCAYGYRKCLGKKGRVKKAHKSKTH
Description: Inhibition of 4-methylumbelliferone glucuronidation by human recombinant UGT1A1.

The nature of data set [14]: Inhibition of codeine glucuronidation by human UGT enzymes from liver homogenate. In kind it is tissue-based.
The target in data set [15] is T2, UDP-glucuronosyltransferase 2B7. Description: (§3) Drug glucuronidation reaction catalyzed by human recombinant UGT2B7.
The next data set has as its target T6, UGT2B7 (Homo sapiens, UniProt P16662).
T6 sequence (P16662 whole entry): T2 sequence (P16662 whole entry)
The description is as §3. Conditions: recombinant UGT2B7.

Data set [16] can be described thus: Inhibition of acetaminophen glucuronidation by human UGT enzymes from liver microsomes. Also noted: species or system Microsome.
In data set [17] the target is UDP-glucuronosyltransferase 1A6 (Homo sapiens, UniProt P19224). The experiment in a line: Inhibition of 4-methylumbelliferone glucuronidation by human recombinant UGT1A6.
Sequence of UDP-glucuronosyltransferase 1A6 (P19224 whole entry): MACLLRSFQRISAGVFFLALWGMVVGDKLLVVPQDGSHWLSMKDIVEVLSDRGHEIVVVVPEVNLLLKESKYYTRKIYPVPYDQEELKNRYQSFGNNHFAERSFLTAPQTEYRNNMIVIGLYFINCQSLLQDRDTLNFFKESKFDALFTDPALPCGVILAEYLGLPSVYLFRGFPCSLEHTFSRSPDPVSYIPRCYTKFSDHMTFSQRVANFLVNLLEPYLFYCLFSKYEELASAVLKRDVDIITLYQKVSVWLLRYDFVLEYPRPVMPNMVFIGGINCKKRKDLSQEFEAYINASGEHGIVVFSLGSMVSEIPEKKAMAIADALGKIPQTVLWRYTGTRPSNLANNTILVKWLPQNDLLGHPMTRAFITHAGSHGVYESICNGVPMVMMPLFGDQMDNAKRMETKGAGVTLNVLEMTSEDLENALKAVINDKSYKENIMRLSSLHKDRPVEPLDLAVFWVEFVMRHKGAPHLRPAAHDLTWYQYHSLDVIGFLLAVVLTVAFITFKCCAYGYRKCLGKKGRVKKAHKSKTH

Sequence of UDP-glucuronosyltransferase 1A10 (Q9HAW8 whole entry): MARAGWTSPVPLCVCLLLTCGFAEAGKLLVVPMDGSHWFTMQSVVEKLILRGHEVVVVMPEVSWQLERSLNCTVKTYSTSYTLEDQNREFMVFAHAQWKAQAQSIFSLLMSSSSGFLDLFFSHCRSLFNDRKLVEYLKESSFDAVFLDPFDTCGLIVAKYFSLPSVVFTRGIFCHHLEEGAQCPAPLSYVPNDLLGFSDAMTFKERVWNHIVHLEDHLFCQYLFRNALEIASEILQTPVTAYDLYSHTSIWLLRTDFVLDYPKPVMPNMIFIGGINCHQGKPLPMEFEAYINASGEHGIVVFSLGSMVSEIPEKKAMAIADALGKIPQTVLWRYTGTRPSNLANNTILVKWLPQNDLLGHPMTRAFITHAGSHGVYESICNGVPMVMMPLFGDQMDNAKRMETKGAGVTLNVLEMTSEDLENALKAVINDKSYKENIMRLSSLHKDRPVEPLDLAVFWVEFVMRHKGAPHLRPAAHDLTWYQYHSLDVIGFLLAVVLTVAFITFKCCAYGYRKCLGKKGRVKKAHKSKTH
Sequence of UGT2B15 (P54855 whole entry): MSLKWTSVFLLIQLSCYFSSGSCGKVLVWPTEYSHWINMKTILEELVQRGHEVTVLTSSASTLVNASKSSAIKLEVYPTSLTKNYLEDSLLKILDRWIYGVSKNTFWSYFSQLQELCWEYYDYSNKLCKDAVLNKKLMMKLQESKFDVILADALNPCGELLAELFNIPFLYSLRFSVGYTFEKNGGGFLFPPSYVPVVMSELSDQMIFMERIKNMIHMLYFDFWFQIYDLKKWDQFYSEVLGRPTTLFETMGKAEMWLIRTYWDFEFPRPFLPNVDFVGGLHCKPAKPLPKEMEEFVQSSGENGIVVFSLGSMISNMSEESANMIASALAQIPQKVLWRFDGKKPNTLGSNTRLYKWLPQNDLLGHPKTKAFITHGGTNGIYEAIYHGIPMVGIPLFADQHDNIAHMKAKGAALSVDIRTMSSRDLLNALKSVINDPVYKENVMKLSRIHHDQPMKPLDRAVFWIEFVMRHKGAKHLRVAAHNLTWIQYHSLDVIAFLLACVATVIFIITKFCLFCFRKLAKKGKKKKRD

In the case of `O=C1Nc2ccc(Cl)cc2C(c2ccccc2)=NC1O` (stereo not given) [OXAZEPAM], the Ki in data set [1] was 120 µM; in [2], 200 µM and 270 µM; in data set [3] it was 188 µM; in data set [4], 580 µM.
On to `CCCC(CCC)C(=O)O` [VALPROIC ACID], for which the inhibition at 5000 µM is 46% at UGT1A9 [5] and 41% at UGT2B15. Further, the Ki in data set [6] is 1600 µM.
As to `O=C(O)Cc1ccccc1Nc1c(Cl)cccc1Cl` [DICLOFENAC], the Km on UGT1A9 [7] was 16 µM; at UGT1A3, 12 µM; in data set [15], 25 µM; on UGT2B7 it was 13 µM. Further, the values for the Vmax in data set [8] and in [11] were 166 pmol/min/mg protein and 142 pmol/min/mg protein, respectively. Moreover, the Ki in [9] stood at 19 µM; in data set [10] it was 11 µM; in [12], 28 µM; in data set [13] it was 52 µM; in [14], 7.9 µM.
Regarding `CCCN(CCC)S(=O)(=O)c1ccc(C(=O)O)cc1` [PROBENECID], the Ki in data set [9] came out at 96 µM; in data set [10] it was 2450 µM; in data set [16], 1100 µM; in data set [4], 1600 µM; in [12], 231 µM; in data set [17], 1430 µM. Moreover, in data set [13], the inhibitory constant (Ki) worked out at 221 µM.
